Test system: 439559-082-T-J2-PDC spheroid viability
Assay: Anticancer human tumor 439559-082-T-J2-PDC patient-derived colon adenocarcinoma cell line growth inhibition [POLQ]
Conditions: spheroids with HUVEC and MSC; for IC50: curve of first compound; for viability, T/C: stronger effect = lower value
How it was run: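 Patient-derived tumour cells were co-cultured with HUVEC and mesenchymal stem cells as multicellular spheroids at 37 °C. They were treated with POLQ inhibitors (novobiocin, ART-558, RP6685) alone or combined with other agents. Top concentrations were at or near clinical Cmax (otherwise 10 microM; SN-38 at 1 microM), decreasing in half-log steps.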

[1] = second compound 0.0316 µM, first compound 0.0316 µM
[2] = second compound 0.0316 µM, first compound 0.1 µM
[3] = second compound 0.0316 µM, first compound 0.316 µM
[4] = second compound 0.0316 µM, first compound 1 µM
[5] = second compound 0.0316 µM, first compound 3.16 µM
[6] = second compound 0.0316 µM, first compound 10 µM
[7] = second compound 0.1 µM, first compound 0.0316 µM
[8] = second compound 0.1 µM, first compound 0.1 µM
[9] = second compound 0.1 µM, first compound 0.316 µM
[10] = second compound 0.1 µM, first compound 1 µM
[11] = second compound 0.1 µM, first compound 3.16 µM
[12] = second compound 0.1 µM, first compound 10 µM
[13] = second compound 0.316 µM, first compound 0.0316 µM
[14] = second compound 0.316 µM, first compound 0.1 µM
[15] = second compound 0.316 µM, first compound 0.316 µM
[16] = second compound 0.316 µM, first compound 1 µM
[17] = second compound 0.316 µM, first compound 3.16 µM
[18] = second compound 0.316 µM, first compound 10 µM
[19] = second compound 1 µM, first compound 0.0316 µM
[20] = second compound 1 µM, first compound 0.1 µM
[21] = second compound 1 µM, first compound 0.316 µM
[22] = second compound 1 µM, first compound 1 µM
[23] = second compound 1 µM, first compound 3.16 µM
[24] = second compound 1 µM, first compound 10 µM
[25] = second compound 3.16 µM, first compound 0.0316 µM
[26] = second compound 3.16 µM, first compound 0.1 µM
[27] = second compound 3.16 µM, first compound 0.316 µM
[28] = second compound 3.16 µM, first compound 1 µM
[29] = second compound 3.16 µM, first compound 3.16 µM
[30] = second compound 3.16 µM, first compound 10 µM
[31] = second compound 10 µM, first compound 0.0316 µM
[32] = second compound 10 µM, first compound 0.1 µM
[33] = second compound 10 µM, first compound 0.316 µM
[34] = second compound 10 µM, first compound 1 µM
[35] = second compound 10 µM, first compound 3.16 µM
[36] = second compound 10 µM, first compound 10 µM
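Also: spheroids exposed to compounds for seven days before readout.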
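For viability, T/C in this document: 100% = DMSO vehicle control viability.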

Q: Which IC50 (second compound 0.0316 µM) does the source give for CC1COCCN1c1cc(-c2ccnn2C)c2ccnc(-c3ccn[nH]3)c2n1 (stereo unspecified) + Nc1ccc(C#CCN(C(=O)Cc2ncc(C(F)(F)F)cc2C(F)(F)F)c2ccc(F)cc2)nn1 here?
A: Its IC50 is 0.475 µM.

Q: What about the IC50 (second compound 0.1 µM) of the same molecule?
A: The IC50 was greater than 10 µM.

Q: And the IC50 (second compound 0.316 µM)?
A: Its IC50 is greater than 10 µM.

Q: And the IC50 (second compound 1 µM)?
A: The IC50 was 0.981 µM.

Q: And the IC50 (second compound 3.16 µM)?
A: The IC50 was 0.313 µM.

Q: And the IC50 (second compound 10 µM)?
A: The IC50 was 0.293 µM.

Q: And the viability, T/C [1]?
A: Its viability, T/C is 105%.

Q: And the viability, T/C [2]?
A: Its viability, T/C is 82.9%.

Q: And the viability, T/C [3]?
A: The viability, T/C was 50.7%.

Q: What about the viability, T/C [4] of the same molecule?
A: The viability, T/C was 41.2%.

Q: What about the viability, T/C [5] of the same molecule?
A: Its viability, T/C is 57%.

Q: What about the viability, T/C [6] of the same molecule?
A: Its viability, T/C is 49.1%.

Q: And the viability, T/C [7]?
A: Its viability, T/C is 105%.

Q: And the viability, T/C [8]?
A: Its viability, T/C is 97.1%.

Q: And the viability, T/C [9]?
A: Its viability, T/C is 57.5%.

Q: What about the viability, T/C [10] of the same molecule?
A: The viability, T/C was 48.9%.

Q: What about the viability, T/C [11] of the same molecule?
A: Its viability, T/C is 55.8%.

Q: What about the viability, T/C [12] of the same molecule?
A: The viability, T/C was 50.3%.

Q: And the viability, T/C [13]?
A: The viability, T/C was 105%.

Q: And the viability, T/C [14]?
A: The viability, T/C was 89.5%.

Q: What about the viability, T/C [15] of the same molecule?
A: The viability, T/C was 52.9%.

Q: What about the viability, T/C [16] of the same molecule?
A: Its viability, T/C is 49.9%.

Q: And the viability, T/C [17]?
A: Its viability, T/C is 57.1%.

Q: And the viability, T/C [18]?
A: The viability, T/C was 52.3%.

Q: What about the viability, T/C [19] of the same molecule?
A: The viability, T/C was 108%.

Q: What about the viability, T/C [20] of the same molecule?
A: The viability, T/C was 84.7%.

Q: What about the viability, T/C [21] of the same molecule?
A: Its viability, T/C is 60.1%.

Q: What about the viability, T/C [22] of the same molecule?
A: Its viability, T/C is 42.4%.

Q: What about the viability, T/C [23] of the same molecule?
A: The viability, T/C was 56.8%.

Q: And the viability, T/C [24]?
A: Its viability, T/C is 46%.

Q: What about the viability, T/C [25] of the same molecule?
A: Its viability, T/C is 111%.

Q: What about the viability, T/C [26] of the same molecule?
A: Its viability, T/C is 78.1%.

Q: And the viability, T/C [27]?
A: Its viability, T/C is 50.1%.

Q: What about the viability, T/C [28] of the same molecule?
A: Its viability, T/C is 43.1%.

Q: What about the viability, T/C [29] of the same molecule?
A: Its viability, T/C is 52.2%.

Q: And the viability, T/C [30]?
A: Its viability, T/C is 47.9%.

Q: And the viability, T/C [31]?
A: Its viability, T/C is 93.3%.

Q: And the viability, T/C [32]?
A: The viability, T/C was 74.3%.

Q: What about the viability, T/C [33] of the same molecule?
A: The viability, T/C was 47.4%.

Q: What about the viability, T/C [34] of the same molecule?
A: The viability, T/C was 48.7%.

Q: What about the viability, T/C [35] of the same molecule?
A: The viability, T/C was 54.2%.

Q: What about the viability, T/C [36] of the same molecule?
A: The viability, T/C was 42.8%.

Q: Which results are given for COc1ccc([C@@H](O)c2cc(-c3ncnc4cc(N5CCOCC5)ccc34)c(F)cc2Cl)nn1 + Cc1cccc(N(C)C(=O)C2C(O)CCN2c2nc(C)cc(C(F)(F)F)c2C#N)c1?
A: IC50 (second compound 0.0316 µM): > 10 µM; IC50 (second compound 0.1 µM): > 10 µM; IC50 (second compound 0.316 µM): > 10 µM; IC50 (second compound 1 µM): > 10 µM; IC50 (second compound 3.16 µM): > 10 µM; IC50 (second compound 10 µM): > 10 µM; viability, T/C [1]: 95.2%; viability, T/C [2]: 95.5%; viability, T/C [3]: 95.9%; viability, T/C [4]: 94.9%; viability, T/C [5]: 93.4%; viability, T/C [6]: 81.5%; viability, T/C [7]: 101%; viability, T/C [8]: 99.3%; viability, T/C [9]: 94.7%; viability, T/C [10]: 92.9%; viability, T/C [11]: 92%; viability, T/C [12]: 80.1%; viability, T/C [13]: 105%; viability, T/C [14]: 111%; viability, T/C [15]: 92.1%; viability, T/C [16]: 99.3%; viability, T/C [17]: 87.4%; viability, T/C [18]: 80.9%; viability, T/C [19]: 108%; viability, T/C [20]: 101%; viability, T/C [21]: 91.6%; viability, T/C [22]: 93.4%; viability, T/C [23]: 85.5%; viability, T/C [24]: 83%; viability, T/C [25]: 95.1%; viability, T/C [26]: 92.3%; viability, T/C [27]: 97.4%; viability, T/C [28]: 95.6%; viability, T/C [29]: 78.1%; viability, T/C [30]: 77.1%; viability, T/C [31]: 94.8%; viability, T/C [32]: 94.7%; viability, T/C [33]: 93%; viability, T/C [34]: 83.5%; viability, T/C [35]: 83.6%; viability, T/C [36]: 78.3%

Q: What does the source list for O=c1[nH]cc(F)c(=O)[nH]1 + COC1C(OC(N)=O)C(O)C(Oc2ccc3c(O)c(NC(=O)c4ccc(O)c(CC=C(C)C)c4)c(=O)oc3c2C)OC1(C)C?
A: IC50 (second compound 0.0316 µM): > 10 µM; IC50 (second compound 0.1 µM): > 10 µM; IC50 (second compound 0.316 µM): > 10 µM; IC50 (second compound 1 µM): > 10 µM; IC50 (second compound 3.16 µM): > 10 µM; IC50 (second compound 10 µM): > 10 µM; viability, T/C [1]: 92.1%; viability, T/C [2]: 94.8%; viability, T/C [3]: 80.5%; viability, T/C [4]: 74.8%; viability, T/C [5]: 72.9%; viability, T/C [6]: 70.1%; viability, T/C [7]: 103%; viability, T/C [8]: 99.7%; viability, T/C [9]: 85.9%; viability, T/C [10]: 72.3%; viability, T/C [11]: 69.8%; viability, T/C [12]: 70.1%; viability, T/C [13]: 108%; viability, T/C [14]: 97.5%; viability, T/C [15]: 83.4%; viability, T/C [16]: 74.1%; viability, T/C [17]: 72.8%; viability, T/C [18]: 66.8%; viability, T/C [19]: 103%; viability, T/C [20]: 96.7%; viability, T/C [21]: 79.9%; viability, T/C [22]: 75.5%; viability, T/C [23]: 68.2%; viability, T/C [24]: 66.9%; viability, T/C [25]: 97.8%; viability, T/C [26]: 98.3%; viability, T/C [27]: 83.9%; viability, T/C [28]: 73.2%; viability, T/C [29]: 69.1%; viability, T/C [30]: 61.6%; viability, T/C [31]: 104%; viability, T/C [32]: 88.9%; viability, T/C [33]: 80.9%; viability, T/C [34]: 69.7%; viability, T/C [35]: 70.1%; viability, T/C [36]: 64.3%
